Experimental data taken from US11634381B2, “RUNX2 transcription factor inhibitors and uses thereof” (University of Maryland, Baltimore, priority 2015, dated 2023).

Tests used:
RUNX2 = test: Western blot of RUNX2, RUNX1, CBF-β; format: cell-based, human; conditions: for CBF-β levels: MDA-231, MDA-468 and MCF7 cells
Description: Whole cell lysates extracted in RIPA buffer (Upstate) were separated on 4-12% gradient SDS-PAGE and transferred to nitrocellulose membrane. The blots were incubated with specific antibodies for each protein overnight at 4° C. After antibody washing, the blots were reacted with their respective secondary antibody and detected with enhanced chemiluminescence reagents (Millipore) according to the supplier's protocol. Antibodies for proteins were purchased as below. RUNX1, RUNX2, CBF-β, ubiquitin and caspase-3 (Cell Signaling Technologies), S451-p-RUNX2 (Bioss Gentaur, Belgium), RUNX3 and Glut-1 (Millipore, Calif.), β-actin and RUNX2 antibody for IHC (Sigma-Aldrich), and Ki-67 for IHC (Bethyl Laboratories, Inc, TX).

BC cell lines = test: Clonogenic survival assay; format: cell-based, human; conditions: 50 μM
Description: Cells were plated on 6-well plates (200˜500 cells/well). After compound 1 (50 μM) treatment, cells were incubated for 2-3 weeks without changing media. Colonies were fixed in Methanol-Acetic Acid solution (3:1) and stained with crystal violet (0.5%). After washing, colonies were photographed and counted.

BC cells = test: Glucose consumption and lactate production; format: cell-based, human
Description: For measurement of glucose level, cells (100,000/well) were plated in 24-well plates and incubated overnight. Cells were treated with compound 1 (50 μM) in phenol red-free growth medium and further incubated for 6 hrs or 24 hrs. The culture medium was collected and filtered through a 0.22 μm pore membrane. Glucose level in the medium was measured using Amplex Red Glucose/Glucose Oxidase Assay Kit (Invitrogen) as per manufacturer's instructions. For lactate level, cells were treated with compound 1 for 24 hrs, and the medium was washed and replaced with HEPES-buffered Krebs-Ringer solution (Boston BioProducts) supplemented with 10 mM Glucose. Cells were incubated for 30 min, and the medium was collected and filtered through a 0.22 μm pore membrane. Lactate level in the medium was measured using Lactate Assay Kit (Sigma-Aldrich) as per manufacturer's instructions. Cell growth assays using crystal violet staining were performed to verify equal number of cells and no significant difference was found in 24 hrs of compound 1 treatment (data not shown).

breast cancer cells = test: Cell cycle analysis by flow cytometry; format: cell-based, human; conditions: 50 μM
Description: Cells (1×10^6 cells/ml) were starved in serum-free medium for 24 hrs, and released in 10% serum-medium with or without compound 1 (50 μM) for 16-24 hrs for cell cycle transition. Cells were then fixed in 70% ethanol at 4° C. for 1 hr, resuspended in 1 ml PBS containing 20 μg/ml propidium iodide, 20 μg/ml RNase A, incubated for 30 min at room temperature, and analyzed with a Becton Dickinson LSR-II at the Flow Cytometry Core Laboratory at the University of Maryland. Ten thousand events per sampl were collected and analyzed using the Cell-Quest (BD Biosciences).

[1] = system: MDA-231, MDA-468, MCF7 and BT474 breast cancer cells; test: ROS production luminometer assay; format: cell-based, human; conditions: 0-100 μM, 6-18 hours
Description: In FIG. 27A MDA-231, MDA-468, MCF7 and BT474 breast cancer cells were treated with compound 1 (0-100 μM) for 6-18 hours and ROS production in response to H2O2 treatment (2 mM) was measured with luciferase-based luminometer assay. In FIG. 27B T47D-Vector control or T47D-RUNX2-clone #10 overexpressing cells; MCF7-Vector Control or RUNX2-clone #2 overexpressing cells were treated with 50 μM compound 1 for 6 hours.

mammary tumors = test: MMTV-PyMT transgenic mouse model; format: in vivo, MMTV-PyMT mice
Description: For the MMTV polyoma middle T antigen (PyMT) mouse model, female mice were purchased from Jackson Laboratory. As mice developed first palpable mammary tumors after 5 weeks of age, mice were randomly assigned to 4 treatment groups at 6 weeks of age and received i.p. injections of compound 1 (1, 5 and 20 mg/kg/group) or equivalent volumes of vehicle (10% DMSO/90% PBS) (200 μl) twice a week. Palpable tumors were monitored every 1 to 2 days until 12 weeks of age to determine tumor incidence (number of tumors per mouse) and onset (the age of palpable tumors). Tumor weight was quantified at the final day after mice were euthanized and tumors were excised. Tumor volume [(length×width^2)/2] was measured by caliper.

MDA-231 cells = test: Cell-electrode impedance invasion assay (xCELLigence); format: cell-based, human; conditions: MDA-231, 50 μM, 48 hrs
Description: Real-time monitoring of cellular invasion was examined using an electrical impedance assay with an xCELLigence RTCA SP real-time cell-sensing device (Roche Applied Science). Matrigel (20 μl of 0.5 mg/ml) was pre-coated in the upper chamber of CIM plates and polymerized for 4 h and MDA-231 cells (75,000) were seeded onto wells containing growth medium with vehicle (0.1% DMSO) or compound 1 (50 μM). Impedance-based signals were measured every 5 minutes for 48 hrs according to the manufacturer's instructions. The invasive activity is expressed as the cell index (mean±SD) of duplicate wells. Three independent experiments were performed. In parallel, MDA-231 cells were plated onto wells with serum-free medium and the assay was performed.

[2] = system: MCF10A non-malignant mammary epithelial cells; test: Mammosphere formation of non-malignant cells; format: cell-based, human

Q: What does the source list for O=C(O)C1C2C=CC(C2)C1C(=O)Nc1ccc(Cl)c(Cl)c1 (stereo not shown) [compound 1, 3-(N-(3,4-dichlorophenyl)carbamoyl)-5-norbornene-2-carboxylic acid]?
A: CBF-β levels (RUNX2; 6 hrs): increased; CBF-β levels (RUNX2; after 24 hrs): decreased; mRNA and protein expression of RUNX2 (RUNX2; T47D-RUNX2 and MCF7-RUNX2 cells, 50 μM, 72 hrs): further enhanced; CBF-β level (RUNX2; ectopic RUNX2 T47D and MCF7 cells, 50 μM, 72 hrs): reduced; stability of RUNX1 or of CBF-β (RUNX2; in the presence of CHX): not increased; RUNX1 protein levels (RUNX2; most BC cells): not altered; clonogenic survival (BC cell lines; 2˜3 weeks, 11 out of 13 BC cells): less than 50%; clonogenic cell survival (BC cell lines; 2˜3 weeks, BT549, HCC70, MDA-468, MCF7, HCC361, BT474): less than 10%; clonogenic survival (BC cell lines; 2˜3 weeks, MDA-231 and Hs578t): > 50%; clonogenic survival (BC cell lines; 2˜3 weeks, MDA-468 and BT474): did not survive; clonogenicity (BC cell lines; T47D-Empty and T47D-RUNX2 cells, 14 days): dramatically diminished; lactate concentration (BC cells; 50 μM): significantly reduced; glucose consumption (BC cells; MDA-231 cells): Slight but insignificant inhibition; glucose level in the medium (BC cells; RUNX2-expressing MCF7 and T47D, MCF7 and MDA-468 cells, 6 hrs and 24 hrs): increased; cell cycle distribution (breast cancer cells): increased cell populations at the G1 phase with reduction at the S phase; mitochondrial ROS production [1]: increase in mitochondrial ROS production; tumor incidence per mouse at the final day (mean±SEM) (mammary tumors; 1 mg/Kg): 4.14±0.88; tumor onset, Frequency of mode (mammary tumors; 1 mg/kg): 8; tumor onset, Mode (mammary tumors; 1 mg/kg): 43; tumor onset, range (mammary tumors; 1 mg/kg): 15˜45; mice with less than 3 tumors (mammary tumors; 5 mg/Kg): 40%; tumor incidence per mouse at the final day (mean±SEM) (mammary tumors; 5 mg/Kg): 3.05±2.57; tumor onset, Frequency of mode (mammary tumors; 5 mg/kg): 11; tumor onset, Mode (mammary tumors; 5 mg/kg): 43; tumor onset, range (mammary tumors; 5 mg/kg): 1˜45; fraction of mice with over 6 tumors (mammary tumors; 20 mg/Kg): no mice; mice with less than 3 tumors (mammary tumors; 20 mg/Kg): 55%; tumor incidence per mouse at the final day (mean±SEM) (mammary tumors; 20 mg/Kg): 2.57±0.72; tumor onset, Frequency of mode (mammary tumors; 20 mg/kg): 9; tumor onset, Mode (mammary tumors; 20 mg/kg): 40; tumor onset, range (mammary tumors; 20 mg/kg): 22˜45; tumor weight (mammary tumors; 1, 5, 20 mg/Kg): reduction; staining of Ki67 in tumor sections versus control mice (mammary tumors; IHC): much weaker; onset of the tumors (mammary tumors; i.p., up to 20 mg/kg, 45 days): significantly delayed; body weight and general health (mammary tumors; up to 20 mg/kg, MMTV-PyMT mice): did not significantly decrease body weight; cell index (mean±SD) (MDA-231 cells): 1.6636±0.1845; mammosphere formation [2]: did not have a significant influence
